# Test results published in US10905744B2, “Pharmaceutical formulations for the oral delivery of peptide drugs” (Cyprumed GmbH, priority 2015, dated 2021).
# Assays:
# [1] = Pharmacokinetic profiles of PTH(1-34) formulations after intestinal administration (Example 3); type: in vivo, Sprague Dawley rats; settings: relative to PTH(1-34) s.c.
# Description: Teriparatide (PTH1-34) was dosed subcutaneously in volume of 1 ml/kg (final concentration 0.024 mg/ml teriparatide) to anaesthetized rats. TER001 and TER002 were dosed into ileum in volume of 0.4 mi/kg (final concentration 0.24 mg/ml teriparatide) to anaesthetized rats. […] The teriparatide plasma concentrations were determined using commercial pTH (1-34) human ELISA kit (Biovendor, EU, cat. number RS-1163.0001).
# [2] = Pharmacokinetic profile of octreotide formulations after administration into proximal jejunum (Example 8)
# Description: The formulations OCT002, OCT003 and OCT004 were dissolved in an octreotide stock solution 5-10 min prior to dosing into proximal jejunum in volume of 0.4 ml/kg to anaesthetized rats. The final octreotide concentration of each formulation was 0.36 mg/kg. Blood was taken from tail vessels at the time points 0, 10, 20, 40, 60, 90 and 120 min after dosing. The octreotide plasma concentration was determined using commercial octreotide kit (Peninsula Laboratories International, Inc., USA, cat.number S-1342.0001).
# [3] = study comparing aprotinin with aminocaproic acid; cited from earlier work
# chymotrypsin = chymotrypsin (Bos taurus, UniProt P00766); test: Chymotrypsin inhibition, BTPNA substrate, absorbance at 405 nm (Examples 9, 13-19, 23, 24, 27, 30, 31); settings: for Inhibition %: Example 15
# Description: CuSO4.5H2O dilutions in 10 mM TRIS buffer pH 7 to 10 mM, 5 mM, 2.5 mM 1.25 mM Benzoyl-Tyrosine p-nitroanilide (BTPNA): 0.5 mg/mL BTPNA in Acetone
# Study: • (1) 100 μl buffer (10 mM TRIS, pH=7)+50 μl Chymotrypsin Stock+50 μl BTPNA • (2) 80 μl buffer (10 mM TRIS, pH=7)+20 μl CuSO4 stock (10 mM)+50 μl Chymotrypsin Stock+50 μl BTPNA • (3) 80 μl buffer (10 mM TRIS, pH=7)+20 μl CuSO4 dilut. (5 mM)+50 μl Chymotrypsin Stock+50 μl BTPNA • (4) 80 μl buffer (10 mM TRIS, pH=7)+20 μl CuSO4 stock (2.5 mM)+50 μl Chymotrypsin Stock+50 μl BTPNA • (5) 80 μl buffer (10 mM TRIS, pH=7)+20 μl CuSO4 dilut. (1.25 mM)+50 μl Chymotrypsin Stock+50 μl BTPNA
# Final copper concentrations: 1 mM, 0.5 mM, 0.25 mM, 0.125 mM.
# 10 mM CuSO4 and Copper gluconate stock solution were diluted 1:1 with 10 mM TRIS buffer pH 7
# Study: • (1) 100 μl buffer (10 mM TRIS, pH=7)+50 μl Chymotrypsin Stock+50 μl BTPNA • (2) 80 μl buffer (10 mM TRIS, pH=7)+20 μl CuSO4 dil. (5 mM)+50 μl Chymotrypsin Stock+50 μl BTPNA • (3) 80 μl buffer (10 mM TRIS, pH=7)+20 μl Copper gluconate dilut. (5 mM)+50 μl Chymotrypsin Stock+50 μl BTPNA • (4) 100 μl Cu-bisglycinate stock (0.5 mM)+50 μl Chymotrypsin Stock+50 μl BTPNA
# 10 mM CuSO4 stock solution was diluted 1:1 with 10 mM TRIS Puffer pH 7
# Study: • (1) 30 μl buffer (10 mM TRIS, pH=7)+20 μl CuSO4 dil. (5 mM)+100 μl Chymotrypsin Stock: 30 min. incubation, then addition of 50 μl BTPNA • (2) 30 μl buffer (10 mM TRIS, pH=7)+100 μl Chymotrypsin Stock: 30 min. incubation, then addition of 20 μl CuSO4 dil. (5 mM)+50 μl BTPNA
# Final copper concentration: 0.5 mM
# Iron(II)-bisglycinate solution containing 1.86 mM of iron in 10 mM TRIS buffer pH 7 was prepared
# Cu(II)-gluconate solution containing 2.0 mM of copper in 10 mM TRIS buffer pH 7 was prepared
# Study: • (1) 100 μl buffer (10 mM TRIS, pH=7)+50 μl Chymotrypsin Stock+50 μl BTPNA • (2) 100 μl iron(II)-bisglycinate+50 μl Chymotrypsin Stock+50 μl BTPNA • (3) 100 μl copper(II)-gluconate+50 μl Chymotrypsin Stock+50 μl BTPNA
# Values were corrected (subtraction of blank). Inhibition was calculated by setting the absorption value of (1) at each time-point as 100%.
# Iron(II)-bisglycinate solution containing 0.46 mM of iron in 10 mM TRIS buffer pH 7 was prepared
# Cu(II)- bisglycinate solution containing 0.46 mM of copper in 10 mM TRIS buffer pH 7 was prepared
# Study: • (1) 100 μl buffer (10 mM TRIS, pH=7)+50 μl Chymotrypsin Stock+50 μl BTPNA • (2) 100 μl iron(II)-bisglycinate+50 μl Chymotrypsin Stock+50 μl BTPNA • (3) 100 μl copper(II)-bisglycinate+50 μl Chymotrypsin Stock+50 μl BTPNA
# Values were corrected (subtraction of blank). Inhibition (%) was calculated by setting the absorption value of (1) at each time-point as 100% degradation.
# Values were corrected (subtraction of blank). pH was confirmed to be pH 7 after the experiment.
# 0.025 mg/ml Chymotrypsin, 0.05 mg/mL Benzoyl-Tyrosine p-nitroanilide (BTPNA). Lauryl glutamate: 0.25 mg/ml; copper (as copper gluconate): 0.035 mg/ml.
# 0.025 mg/ml Chymotrypsin, 0.05 mg/mL Benzoyl-Tyrosine p-nitroanilide (BTPNA). Lauryl glutamate: 0.25 mg/ml; iron (as iron gluconate): 0.03 mg/ml.
# 100 μl 50 mM TRIS pH 7+50 μL Chymotrypsin Stock+50 μL BTPNA Stock
# 50 μl Beta-cyclodextrin+50 μl 50 mM TRIS pH 7+50 μL Chymotrypsin Stock+50 μL BTPNA Stock
# 50 μl copper gluconate+50 μl 50 mM TRIS pH 7+50 μL Chymotrypsin Stock+50 μL BTPNA Stock
# 50 μl copper gluconate+50 μl Beta-cyclodextrin+50 μL Chymotrypsin Stock+50 μL BTPNA Stock
# 50 μl copper gluconate+50 μl trisodium phosphate+50 μL Chymotrypsin Stock+50 μL BTPNA Stock
# 50 μl iron gluconate+50 μl trisodium phosphate+50 μL Chymotrypsin Stock+50 μL BTPNA Stock
# Experiments were carried out at pH 7 in 50 mM TRIS buffer.
# trypsin = molecular target: T1, trypsin (Bos taurus, UniProt P00760); test: Trypsin inhibition, BAPNA substrate, absorbance at 405 nm (Examples 10-12, 20-22, 25, 26, 28, 29, 33); type: biochemical; settings: for inhibition of trypsin: 50 mM TRIS pH 7
# T1 construct: gene PRSS1
# T1 sequence (P00760 24-246): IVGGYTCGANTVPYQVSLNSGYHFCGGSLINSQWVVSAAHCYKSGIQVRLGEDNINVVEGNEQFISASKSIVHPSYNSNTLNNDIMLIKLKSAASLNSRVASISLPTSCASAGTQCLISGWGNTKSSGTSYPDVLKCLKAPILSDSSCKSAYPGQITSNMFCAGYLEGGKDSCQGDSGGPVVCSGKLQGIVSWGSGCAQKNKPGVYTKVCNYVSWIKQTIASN
# Description: 100 mg/ml copper gluconate in 50 mM TRIS pH 7; pH was adjusted to pH 7; stock solution was diluted to the following concentrations: 50 mg/ml, 25 mg/ml, 12.5 mg/ml, 5 mg/ml, 6.25 mg/ml, 3.125 mg/ml, 2.5 mg/ml, 1.25 mg/ml, 0.625 mg/ml, 0.313 mg/ml, 0.156 mg/ml and 0.078 mg/ml
# 0.5 mg/mL Benzoyl-Arginine p-nitroanilide (BAPNA)
# 100 μl 50 mM TRIS pH 7+50 μL Trypsin Stock+50 μL BAPNA Stock
# 100 μl Copper solution (according to the above described dilutions)+50 μL Trypsin Stock+50 μL BAPNA Stock
# Absorption was measured after 15 minutes at 405 nm.
# Values were corrected (subtraction of blank).
# 100 mg/ml Zinc bisglycinate in 50 mM TRIS pH 7; pH was adjusted to pH 7; stock solution was diluted to the following concentrations: 50 mg/ml and 25 mg/ml
# 100 μl Zinc solution (according to the above described dilutions)+50 μL Trypsin Stock+50 μL BAPNA Stock
# 10 mg/ml iron gluconate in 50 mM TRIS pH 7; pH was adjusted to pH 7; stock solution was diluted to the following concentrations: 5 mg/ml, 2.5 mg/ml, 1.25 mg/ml and 0.625 mg/ml
# 100 μl Iron solution (according to the above described dilutions)+50 μL Trypsin Stock+50 μL BAPNA Stock
# Absorption was measured directly at 405 nm.
# Benzoyl-Arginine p-nitroanilide (BAPNA): 0.5 mg/ml in 50 mM TRIS pH 7 (centrifuged and supernatant used as stock solution)
# Trypsin: […] in 50 mM TRIS pH 7
# 1 mg/mL iron gluconate in 10 mM TRIS pH 7 (iron content=12%), 0.12 mg/ml iron
# […] copper lysinate in 10 mM TRIS pH 7 (copper content=3%), 0.12 mg/ml copper
# 100 μl of the respective salt solution+50 μL Trypsin Stock+50 μL BAPNA Stock
# Experiments were carried out at pH 7, 50 mM TRIS.
# 0.025 mg/ml Trypsin, 0.125 mg/mL Benzoyl-Arginine p-nitroanilide (BAPNA.) Lauryl glutamate:
# 0.25 mg/ml; copper content (as copper(II)gluconate): 0.035 mg/ml.
# Adsorption measurement at 405 nm
# 0.025 mg/ml Trypsin, 0.125 mg/mL Benzoyl-Arginine p-nitroanilide (BAPNA). lauryl-glutamate:
# Absorption measurement at 405 nm
# 0.025 mg/ml Trypsin, 0.125 mg/mL Benzoyl-Arginine p-nitroanilide (BAPNA). Capryl-glucoside:
# Copper sulfate stock solution: 1 mg/ml of copper sulfate was dissolved in 50 mM TRIS pH 7. Copper tartrate stock solution: 1 mg/ml of copper tartrate was dispersed in 50 mM TRIS pH 7 and moderately stirred for 5 minutes. The suspension was then centrifuged at 3′000 rpm for 10 minutes, to separate the insoluble salt. The supernatant was used as stock solution for the experiments.
# Zinc orotate stock solution: 1 mg/ml of zinc orotate was dispersed in 50 mM TRIS pH 7 and moderately stirred for 5 minutes. The suspension was then centrifuged at 3′000 rpm for 10 minutes, to separate the insoluble salt. The supernatant was used as stock solution for the experiments.
# 100 μL of the respective salt solution stock+50 μL Trypsin Stock+50 μL BAPNA Stock
# Control: 100 μL of 50 mM TRIS pH 7+50 μL Trypsin Stock+50 μL BAPNA Stock
# Final concentrations of protease and substrate were 0.025 mg/ml Trypsin, 0.125 mg/mL
# 50 μl manganese sulfate+50 μl copper gluconate+50 μL Trypsin Stock+50 μL BAPNA Stock
# Absorption measurement at 405 nm; final pH in all solutions was monitored to be pH 7.
# 3 mg/ml SiO2—suspended in 50 mM TRIS pH 7 and centrifuged; supernatant was used for experiments.
# 50 μl SiO2+50 μl 50 mM TRIS pH 7+50 μL Trypsin Stock+50 μL BAPNA Stock
# 50 μl copper gluconate+50 μl SiO2+50 μL Trypsin Stock+50 μL BAPNA Stock
# 50 μl iron gluconate+50 μl SiO2+50 μL Trypsin Stock+50 μL BAPNA Stock
# 120 μl 50 mM TRIS pH 7+50 μL Trypsin Stock+50 μL BAPNA Stock
# 80 μl copper gluconate+40 μl 50 mM TRIS pH 7+50 μL Trypsin Stock+50 μL BAPNA Stock
# 40 μl copper gluconate+80 μl 50 mM TRIS pH 7+50 μL Trypsin Stock+50 μL BAPNA Stock
# 80 μl iron gluconate+40 μl 50 mM TRIS pH 7+50 μL Trypsin Stock+50 μL BAPNA Stock
# 40 μl iron gluconate+80 μl 50 mM TRIS pH 7+50 μL Trypsin Stock+50 μL BAPNA Stock
# 80 μl iron gluconate+40 μl copper gluconate+50 μL Trypsin Stock+50 μL BAPNA Stock
# [4] = GLP-1 peptide formulations with SNAC and trace elements: dissolution in aqua purificata, visual (Example 4); type: physicochemical; settings: liraglutide 1.8 mg/ml, SNAC 20 mg, trace element 2 mg, disodium phosphate dihydrate, 2 ml aqua purificata
# Description: Compositions comprising a GLP-1 peptide, a complexing agent (disodium phosphate dihydrate), the absorption enhancer N-(8-[2-hydroxybenzoyl]amino)caprylic acid (SNAC) and various trace elements or metal salts were prepared and dissolved in 2 ml of aqua purificata and examined visually.
# [5] = Sprague Dawley, rat, in vivo, sc
# [6] = Example 20, solutions 1 mg/mL iron gluconate, 1 mg/mL copper gluconate, 12 mg/mL copper lysinate, FIG. 11
# [7] = Example 33, stocks 1 mg/ml copper(II)gluconate, 1 mg/ml iron(II)gluconate, 40 or 80 μl, pH 7, FIG. 23
compound,measurement,setting,value
"CC[C@H](C)[C@H](NC(=O)[C@H](CCC(=O)O)NC(=O)[C@H](CO)NC(=O)[C@@H](NC(=O)[C@@H](N)CO)C(C)C)C(=O)N[C@@H](CCC(N)=O)C(=O)N[C@@H](CC(C)C)C(=O)N[C@@H](CCSC)C(=O)N[C@@H](Cc1cnc[nH]1)C(=O)N[C@@H](CC(N)=O)C(=O)N[C@@H](CC(C)C)C(=O)NCC(=O)N[C@@H](CCCCN)C(=O)N[C@@H](Cc1cnc[nH]1)C(=O)N[C@@H](CC(C)C)C(=O)N[C@@H](CC(N)=O)C(=O)N[C@@H](CO)C(=O)N[C@@H](CCSC)C(=O)N[C@@H](CCC(=O)O)C(=O)N[C@@H](CCCN=C(N)N)C(=O)N[C@H](C(=O)N[C@@H](CCC(=O)O)C(=O)N[C@@H](Cc1c[nH]c2ccccc12)C(=O)N[C@@H](CC(C)C)C(=O)N[C@@H](CCCN=C(N)N)C(=O)N[C@@H](CCCCN)C(=O)N[C@@H](CCCCN)C(=O)N[C@@H](CC(C)C)C(=O)N[C@@H](CCC(N)=O)C(=O)N[C@@H](CC(=O)O)C(=O)N[C@H](C(=O)N[C@@H](Cc1cnc[nH]1)C(=O)N[C@@H](CC(N)=O)C(=O)N[C@@H](Cc1ccccc1)C(=O)O)C(C)C)C(C)C [PTH (1-34) s.c., Teriparatide]",F,[1],100 ± 23%
"C[C@@H](O)[C@@H]1NC(=O)[C@H](CCCCN)NC(=O)[C@@H](Cc2c[nH]c3ccccc23)NC(=O)[C@H](Cc2ccccc2)NC(=O)[C@@H](NC(=O)[C@H](N)Cc2ccccc2)CSSC[C@@H](C(=O)N[C@H](CO)[C@@H](C)O)NC1=O [Reference (s.c.), Octreotide]",ΔAUC(0-120),"[2]; OCT formulations 0.4 ml/kg into proximal jejunum, octreotide 0.36 mg/kg, reference s.c., anaesthetized rats",14126 ± 2727 ng·min/mL
same,bioavailability,"[2]; Sprague Dawley, rat, in vivo",100 ± 19%
same,Cmax,[2]; [5],148 ± 36 ng/mL
same,Tmax,[2]; [5],1.5 h
Aprotinin,increase in mortality,[3],64%
Copper gluconate,Inhibition %,"chymotrypsin; 0 minutes, metal ion Fe 0.06 mg/ml (0.92 mM), Cu 0.065 mg/ml (1.0 mM), 10 mM TRIS pH 7",0%
same,Inhibition %,"chymotrypsin; 15 minutes, metal ion Fe 0.92 mM, Cu 1.0 mM",82%
same,Inhibition %,"chymotrypsin; 30 minutes, metal ion Fe 0.92 mM, Cu 1.0 mM",84%
same,Inhibition %,"chymotrypsin; 45 minutes, metal ion Fe 0.92 mM, Cu 1.0 mM",82%
same,Inhibition %,"chymotrypsin; 60 minutes, metal ion Fe 0.92 mM, Cu 1.0 mM",79%
same,chymotrypsin inhibition,"chymotrypsin; Example 18, stocks: copper gluconate 10 mM, EDTA 5 mM, sodium caprylate 4 mg/ml, pH 7, FIG. 9",can inhibit chymotrypsin
same,chymotrypsin inhibition,"chymotrypsin; Example 23, lauryl glutamate […], copper […], pH 7, 50 mM TRIS, FIG. 14",can be inhibited
same,chymotrypsin inhibition,"chymotrypsin; Example 27, stocks […] copper(II)gluconate, 1 mg/ml beta-cyclodextrin, FIG. 18",can be inhibited
same,chymotrypsin inhibition,"chymotrypsin; Example 31, stocks […] copper(II)gluconate, 1.25 mM EDTA, pH 7, 10 mM TRIS, FIG. 22",can be inhibited
same,inhibition of trypsin,"trypsin; Example 10, copper gluconate solutions 100 to 0.078 mg/ml, after 15 minutes, FIG. 3",inhibits the proteolytic enzyme trypsin in a dose dependent manner
same,trypsin inhibition,trypsin; [6],can be inhibited
same,trypsin inhibition,"trypsin; Example 21, lauryl glutamate […], copper […], pH 7, 50 mM TRIS, FIG. 12",can be inhibited
same,trypsin inhibition,"trypsin; Example 28, stocks 1 mg/ml copper(II)gluconate, 1 mg/ml manganese(II)sulfate, pH 7, FIG. 19",can be inhibited
same,trypsin inhibition,trypsin; [7],can be inhibited
same,Dissolution in aqua purificata,[4],Clear yellowish solution
Iron gluconate,chymotrypsin inhibition,"chymotrypsin; Example 24, lauryl glutamate […], iron 0.03 mg/ml, pH 7, 50 mM TRIS, FIG. 15",can be inhibited
same,inhibition of trypsin,"trypsin; Example 12, iron gluconate solutions 10 to 0.625 mg/ml, FIG. 5",inhibits the proteolytic enzyme trypsin in a dose dependent manner
same,trypsin inhibition,trypsin; [6],can be inhibited
same,trypsin inhibition,"trypsin; Example 22, lauryl-glutamate […], iron 0.03 mg/ml, pH 7, 50 mM TRIS, FIG. 13",can be inhibited
same,trypsin inhibition,"trypsin; Example 25, capryl-glucoside […], iron 0.03 mg/ml, pH 7, 50 mM TRIS, FIG. 16",can be inhibited
same,trypsin inhibition,trypsin; [7],can be inhibited
same,Dissolution in aqua purificata,[4],Clear orange solution
